Experimental data from ChEMBL document CHEMBL5257018, “Novel Strategies for the Treatment of Pseudomonas aeruginosa Infections” (J Med Chem, 2016).
≈ marks a conversion by molar mass, not a printed value. Numbered stars: 1 amine (or outer) side, 2 acyl side, 3 side chain; on linkers, the order of the positions; unused ones are H or OH. Bridge positions count the residues as written; N and C are the ends. Square brackets hold non-standard residues; d marks the D form. Side chains are listed from the residue outwards. Peptide text beside a SMILES is read from it. I, II: the chains in the order shown. X2 = COc1cccc2[nH]c(C)c(C[C@H](N[*:1])C(=O)[*:2])c12; dAla(ψthiazole) = C[C@@H](N[*:1])c1nc(C(=O)[*:2])cs1; Trp(4-OMe) = COc1cccc2[nH]cc(C[C@H](N)C(=O)O)c12; X3 = O=C(c1csc([C@@H](CO)N[*:1])n1)[*:2]; GlyΨ(Thz) = O=C(c1csc(CN[*:1])n1)[*:2]; dDab = NCC[C@@H](N)C(=O)O; Orn = NCCC[C@H](N)C(=O)O; dAbu = CC[C@@H](N)C(=O)O; Dab = NCC[C@H](N)C(=O)O; Dha = C=C(N)C(=O)O; Sar = CNCC(=O)O

biological target: Elastase (Pseudomonas aeruginosa (strain ATCC 15692 / PAO1 / 1C / PRS 101 / LMG12228), UniProt P14756); test: Inhibition of Pseudomonas aeruginosa LasB elastase using aminobenzoyl-Ala-Gly-Leu-Ala-p-nitro-benzyl-amide as substrate b microtiter-based fluorimetric assay; conditions: not given
Sequence (P14756 whole entry): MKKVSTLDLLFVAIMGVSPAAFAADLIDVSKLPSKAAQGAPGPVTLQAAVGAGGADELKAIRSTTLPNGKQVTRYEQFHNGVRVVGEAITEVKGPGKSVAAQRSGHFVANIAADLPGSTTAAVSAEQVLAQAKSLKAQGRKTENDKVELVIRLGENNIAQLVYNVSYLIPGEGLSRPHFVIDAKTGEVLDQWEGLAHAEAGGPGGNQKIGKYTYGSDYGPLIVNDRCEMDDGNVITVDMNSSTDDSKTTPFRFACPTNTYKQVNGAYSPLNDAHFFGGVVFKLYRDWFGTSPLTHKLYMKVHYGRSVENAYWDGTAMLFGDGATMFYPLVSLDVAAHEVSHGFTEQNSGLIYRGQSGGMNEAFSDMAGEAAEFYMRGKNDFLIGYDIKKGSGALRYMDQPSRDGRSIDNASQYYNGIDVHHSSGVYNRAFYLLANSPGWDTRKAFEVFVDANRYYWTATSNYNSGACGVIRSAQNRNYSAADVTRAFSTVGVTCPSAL

SMILES	IC50 [µM]	Ki [µM]
Cc1c(O)c(=S)ccn1Cc1ccc(-c2ccccc2)cc1	3	
O=C(Nc1ccc(O)c(=O)cc1)Nc1cccc2ccccc12	1	
CC(=O)SCC(=O)Nc1cc(C)c(Br)cc1Cl	6	
CC(C)C[C@H](NP(=O)(O)O[C@@H]1O[C@@H](C)[C@H](O)[C@@H](O)[C@H]1O)C(=O)N[C@@H](Cc1c[nH]c2ccccc12)C(=O)O [PHOSPHORAMIDON]		0.057

tested on: not listed separately; test: Antagonist activity at Pseudomonas aeruginosa MvfR; conditions: not given

IC50 [µM]	SMILES
0.3	O=C(CSc1nc2cc([N+](=O)[O-])ccc2[nH]1)Nc1ccc(Oc2ccccc2)cc1
0.087	CC(C)(C)c1ccc(C(=O)NO)cc1
0.25	Nc1nnc(-c2cccc(C(F)(F)F)c2)o1
0.05	CCCCCCCCCc1nc2cc(Cl)ccc2c(=O)n1N

biological target: T1, PA-I galactophilic lectin (Pseudomonas aeruginosa (strain ATCC 15692 / PAO1 / 1C / PRS 101 / LMG12228), UniProt Q05097); test: Binding affinity to Pseudomonas aeruginosa PAO1 LecA assessed as dissociation constant; conditions: not given
T1 sequence (Q05097 whole entry): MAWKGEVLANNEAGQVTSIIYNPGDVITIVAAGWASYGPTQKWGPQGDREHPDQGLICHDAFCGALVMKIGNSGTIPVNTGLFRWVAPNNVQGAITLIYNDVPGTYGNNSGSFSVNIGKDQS

SMILES	Kd [µM]
OC[C@H]1O[C@@H](Sc2ccc3ccccc3c2)[C@H](O)[C@@H](O)[C@H]1O	6.3
C[C@@H]1O[C@H](CO)[C@@H](O)[C@H](O)[C@@H]1O	16
COC(=O)c1cn([C@@H]2O[C@H](CO)[C@@H](O[C@@H]3O[C@@H](C)[C@@H](O)[C@@H](O)[C@@H]3O)[C@H](O)[C@H]2NC(C)=O)nn1	0.29
CC(=O)N[C@H]1C(O)O[C@H](CO)[C@@H](O[C@@H]2O[C@@H](C)[C@@H](O)[C@@H](O)[C@@H]2O)[C@@H]1O[C@@H]1O[C@H](CO)[C@H](O)[C@H](O)[C@H]1O (stereo not given in full)	0.212
C[C@@H]1O[C@H](C)[C@@H](O)[C@H](O)[C@@H]1O	17
CC[C@H](C)[C@H](NC(=O)[C@H](Cc1cnc[nH]1)NCCCC[C@H](NC(=O)[C@@H](NC(=O)[C@H](CCCCN)NC(=O)[C@H](Cc1ccccc1)NC(=O)[C@H](CCCCNC(=O)[C@H](CC(C)C)NC(=O)[C@@H]1CCCN1C(=O)[C@@H](N)CCCCNC(=O)C[C@@H]1O[C@@H](C)[C@@H](O)[C@@H](O)[C@@H]1O)NC(=O)[C@H](CC(C)C)NC(=O)[C@@H]1CCCN1C(=O)[C@@H](N)CCCCNC(=O)C[C@@H]1O[C@@H](C)[C@@H](O)[C@@H](O)[C@@H]1O)[C@@H](C)CC)C(=O)N[C@H](C(=O)N[C@@H](CCCCN)C(=O)N[C@@H](Cc1ccccc1)C(=O)N[C@@H](CCCCN[C@@H](CC(C)C)C(=O)N1CCC[C@H]1C(=O)N[C@@H](CCCCNC(=O)C[C@@H]1O[C@@H](C)[C@@H](C)[C@@H](C)[C@@H]1O)C(=O)O)C(=O)N[C@@H](CC(C)C)C(=O)N1CCC[C@H]1C(=O)N[C@@H](CCCCNC(=O)C[C@@H]1O[C@@H](C)[C@@H](O)[C@@H](O)[C@@H]1O)C(=O)O)[C@@H](C)CC)C(N)=O	0.14
CO[C@H]1O[C@H]([C@@H](O)CNS(=O)(=O)c2c(C)cc(C)cc2C)[C@@H](O)[C@H](O)[C@@H]1O	0.1
N=C(N)NCCC[C@H](NC(=O)COCCOCCNC(=O)[C@H](CCCCNC(=O)[C@@H]1C[C@H](NC(=O)[C@H](Cc2cn(CCNC(=O)c3ccc(S[C@@H]4O[C@H](CO)[C@H](O)[C@H](O)[C@H]4O)cc3)nn2)NC(=O)COc2ccccc2)CN1)NC(=O)[C@@H]1C[C@H](NC(=O)[C@H](Cc2cn(CCNC(=O)c3ccc(S[C@@H]4O[C@H](CO)[C@H](O)[C@H](O)[C@H]4O)cc3)nn2)NC(=O)COc2ccccc2)CN1)C(N)=O	0.082

tested on: not listed separately; test: Half life in mouse; assay type: ADME, organism-based; conditions: in vivo

SMILES	half-life [min]
CO[C@H]1O[C@H](CO)[C@@H](O)[C@H](O)[C@@H]1O	0.75
CO[C@H]1O[C@H](CNC(=O)/C=C/c2ccccc2)[C@@H](O)[C@H](O)[C@@H]1O	5

tested on: Pseudomonas aeruginosa; test: Antimicrobial activity against Pseudomonas aeruginosa assessed as reduction in bacterial growth; assay type: functional, organism-based; conditions: not given

MIC	MIC50 [µg/mL]	MIC90 [µg/mL]	SMILES	IC50 [µg/mL]
			C=C1NC(=O)[C@@H](C)NC(=O)CNC(=O)[C@H](Cc2c(C)[nH]c3cccc(OC)c23)NC(=O)[C@H](Cc2c[nH]c3ccccc23)NC(=O)c2csc(n2)[C@@H](C)NC(=O)CN(C)C1=O (cyclo(W[X2]G[dA][Dha][Sar][dAla(ψthiazole)]))	0.1 (≈ 0.119 µM)
			C=C1NC(=O)[C@@H](C)NC(=O)CNC(=O)[C@H](Cc2c[nH]c3ccccc23)NC(=O)[C@H](Cc2c[nH]c3ccccc23)NC(=O)c2csc(n2)[C@@H](C)NC(=O)CN(C)C1=O	1.4 (≈ 1.76 µM)
			C=C1NC(=O)[C@@H](C)NC(=O)CNC(=O)[C@H](Cc2c[nH]c3cccc(OC)c23)NC(=O)[C@H](Cc2c[nH]c3ccccc23)NC(=O)c2csc(n2)[C@@H](C)NC(=O)CN(C)C1=O (cyclo(W[Trp(4-OMe)]G[dA][Dha][Sar][dAla(ψthiazole)]))	0.12 (≈ 0.145 µM)
0.4 µM			CC(C)C[C@H](NC(=O)[C@H](CCCCN)NC(=O)[C@H](CCCCNC(=O)[C@H](CC(C)C)NC(=O)[C@H](CCCCN)NC(=O)[C@H](CCCCNC(=O)[C@H](CC(C)C)NC(=O)[C@H](CCCCN)NC(=O)[C@H](CCCCNC(=O)[C@H](CC(C)C)NC(=O)[C@@H](N)CCCCN)NC(=O)[C@H](CC(C)C)NC(=O)[C@@H](N)CCCCN)NC(=O)[C@H](CC(C)C)NC(=O)[C@H](CCCCN)NC(=O)[C@H](CCCCNC(=O)[C@H](CC(C)C)NC(=O)[C@@H](N)CCCCN)NC(=O)[C@H](CC(C)C)NC(=O)[C@@H](N)CCCCN)NC(=O)[C@H](CC(C)C)NC(=O)[C@H](CCCCN)NC(=O)[C@H](CCCCNC(=O)[C@H](CC(C)C)NC(=O)[C@H](CCCCN)NC(=O)[C@H](CCCCNC(=O)[C@H](CC(C)C)NC(=O)[C@@H](N)CCCCN)NC(=O)[C@H](CC(C)C)NC(=O)[C@@H](N)CCCCN)NC(=O)[C@H](CC(C)C)NC(=O)[C@H](CCCCN)NC(=O)[C@H](CCCCNC(=O)[C@H](CC(C)C)NC(=O)[C@@H](N)CCCCN)NC(=O)[C@H](CC(C)C)NC(=O)[C@@H](N)CCCCN)C(N)=O (I: H-KLK([Leu-Lys])KLKKLKKL-NH2 / II: H-KLK([Leu-Lys])KLKKL / III: H-KLK([Leu-Lys])KL / IV: H-KLK([Leu-Lys])KL; amide I:6-IV:C, I:9-II:C, II:6-III:C)	
0.4 µM			CC(C)[C@H](NC(=O)[C@H](Cc1c[nH]c2ccccc12)NC(=O)[C@H](CCCNC(=N)N)NC(=O)[C@H](CCCNC(=N)N)NC(=O)[C@@H](NC(=O)[C@@H](NC(=O)[C@H](CCCNC(=N)N)NC(=O)[C@@H](NC(=O)[C@@H](NC(=O)[C@H](CCCNC(=N)N)NC(=O)[C@H](CCCNC(=N)N)NC(=O)[C@@H](NC(=O)[C@H](Cc1c[nH]c2ccccc12)NC(=O)[C@H](CCCNC(=N)N)NC(=O)[C@H](CCCNC(=N)N)NC(=O)[C@@H](NC(=O)[C@H](CCCNC(=N)N)NC(=O)[C@H](CCCNC(=N)N)NC(=O)[C@@H](NC(=O)[C@H](Cc1c[nH]c2ccccc12)NC(=O)[C@H](CCCNC(=N)N)NC(=O)[C@@H](N)CCCNC(=N)N)C(C)C)C(C)C)C(C)C)C(C)C)C(C)C)C(C)C)C(C)C)C(=O)N[C@@H](CCCNC(=N)N)C(=O)N[C@@H](CCCNC(=N)N)C(=O)O (H-RRWVRRVRRWVRRVVRVVRRWVRR-OH)	
	10 (≈ 6.44 µM)		CC[C@H](C)[C@@H]1NC(=O)[C@H](Cc2c[nH]c3ccccc23)NC(=O)[C@H]([C@@H](C)O)NC(=O)[C@@H]2CCCN2C(=O)[C@H]2CCCN2C(=O)[C@H](CO)NC(=O)[C@H](C)NC(=O)[C@H](CCN)NC(=O)[C@H](CCN)NC(=O)[C@H](Cc2c[nH]c3ccccc23)NC(=O)[C@H](CCN)NC(=O)[C@@H](CCN)NC(=O)[C@H](CCCN)NC(=O)[C@H](CCN)NC1=O [MUREPAVADIN] (cyclo(TWI[Dab][Orn][dDab][Dab]W[Dab][Dab]AS[dP]P))	
2 µM			C[C@@H](N)C(=O)N[C@H](CCCCN)C(=O)N[C@H](CCCNC(=N)N)C(=O)N[C@H](Cc1c[nH]cn1)C(=O)N[C@H](Cc1c[nH]cn1)C(=O)NCC(=O)N[C@H](Cc1ccc(O)cc1)C(=O)N[C@H](CCCCN)C(=O)N[C@H](CCCNC(=N)N)C(=O)N[C@H](CCCCN)C(=O)N[C@H](Cc1ccccc1)C(=O)N[C@H](Cc1c[nH]cn1)C(N)=O (H-[dA][dK][dR][dH][dH]G[dY][dK][dR][dK][dF][dH]-NH2)	
			C=C1NC(=O)[C@@H](C)NC(=O)CNC(=O)[C@H](Cc2c[nH]c3cccc(OC)c23)NC(=O)[C@H](Cc2c[nH]c3ccccc23)NC(=O)c2csc(n2)[C@@H](CO)NC(=O)CN(C)C1=O (cyclo([Dha][Sar][X3]W[Trp(4-OMe)]G[dA]))	5 (≈ 5.95 µM)
			C=C1NC(=O)[C@@H](C)NC(=O)CNC(=O)[C@H](Cc2c[nH]c3cccc(OC)c23)NC(=O)[C@H](Cc2c[nH]c3ccccc23)NC(=O)c2csc(n2)CNC(=O)CN(C)C1=O (cyclo([Dha][Sar][GlyΨ(Thz)]W[Trp(4-OMe)]G[dA]))	0.8 (≈ 0.987 µM)
			C=C1NC(=O)[C@@H](CC)NC(=O)CNC(=O)[C@H](Cc2c[nH]c3cccc(OC)c23)NC(=O)[C@H](Cc2c[nH]c3ccccc23)NC(=O)c2csc(n2)[C@@H](C)NC(=O)CN(C)C1=O (cyclo([Dha][Sar][dAla(ψthiazole)]W[Trp(4-OMe)]G[dAbu]))	0.08 (≈ 0.0954 µM)
1 µg/mL			COc1c(NC(=O)c2ccc(NC(=O)c3ccc(NC(=O)[C@H](CC#N)NC(=O)c4ccc(NC(=O)/C(C)=C/c5ccc(O)cc5)cc4)cc3)c(OC)c2O)ccc(C(=O)O)c1O	
1 µM			CCCCCCCCCCCCCB(O)O	
			C=C1NC(=O)[C@@H](CC)NC(=O)CNC(=O)[C@H](Cc2c[nH]c3cccc(OC)c23)NC(=O)[C@H](Cc2c[nH]c3ccccc23)NC(=O)c2csc(n2)[C@@H](CO)NC(=O)CN(C)C1=O (cyclo([Dha][Sar][X3]W[Trp(4-OMe)]G[dAbu]))	4 (≈ 4.68 µM)
32 µg/mL			Cc1ccc2c(C)c3c(c(O)c2c1O)C(=O)[C@]1(O)C(=O)C(C(N)=O)=C(O)[C@H](N)[C@@H]1C3	
			C=C1NC(=O)[C@@H](CC)NC(=O)CNC(=O)[C@H](Cc2c(C)[nH]c3cccc(OC)c23)NC(=O)[C@H](Cc2c[nH]c3ccccc23)NC(=O)c2csc(n2)[C@@H](C)NC(=O)CN(C)C1=O (cyclo(W[X2]G[dAbu][Dha][Sar][dAla(ψthiazole)]))	0.14 (≈ 0.164 µM)
		16 (≈ 27.3 µM)	CN(C)c1cc(NC(=O)CNC(C)(C)C)c(O)c2c1C[C@H]1C[C@H]3[C@H](N(C)C)C(O)=C(C(N)=O)C(=O)[C@@]3(O)C(O)=C1C2=O [TIGECYCLINE]	

SMILES	MIC	MIC50 [µg/mL]	MIC90 [µg/mL]	IC50 [µg/mL]
CC[C@H](C)[C@H](NC(=O)[C@H](CCCNC(=N)N)NC(=O)[C@H](CCCNC(=N)N)NC(=O)[C@H](Cc1ccccc1)NC(=O)[C@H](CC(C)C)NC(=O)[C@H](CCCNC(=N)N)NC(=O)[C@@H](N)CCCNC(=N)N)C(=O)N[C@@H](CC(C)C)C(=O)N[C@@H](CCCNC(=N)N)C(=O)N[C@@H](Cc1ccc(O)cc1)C(=O)N[C@@H](CC(C)C)C(=O)O (H-RRLFRRILRYL-OH)	2.5 µM			
